Test results as given in article PMC8699473, “An Easily Expandable Multi-Drug LC-MS Assay for the Simultaneous Quantification of 57 Oral Antitumor Drugs in Human Plasma” (Cancers, 2021).

Key:
[1] = 244 plasma samples; cited from earlier work
[2] = Reference trough level (cmin) at steady state; format: in vivo, human; details: minimum steady-state plasma concentration, calculated based on cmax; ref supplement [7], [2,5,24], [51]
[3] = human
[4] = human; remark: listed apart in the source

In the case of C[C@]12CC[C@H](O)CC1=CC[C@@H]1[C@@H]2CC[C@]2(C)C(c3cccnc3)=CC[C@@H]12 [Abiraterone], the average plasma concentration [1] is given as 9.3 ng/mL and the “range of plasma concentration” value [1] is given as 2.0 to 49.8 ng/mL.

For O=C1CN2Cc3c(ccc(Cl)c3Cl)N=C2N1 [Anagrelide], the “cmin” value [2] was 1.5 ng/mL.

For Cc1ccc(C(=O)Nc2ccc(CN3CCN(C)CC3)c(C(F)(F)F)c2)cc1C#Cc1cnc2cccnn12 [Ponatinib], the “Short-time stability (1h, 56°C) Accuracy [%]” value [3] was 30.7%, the “Short-time stability (24h, 4°C, without daylight) Accuracy [%]” value [3] was 95.7% and the “Short-time stability (24h, RT, with daylight) Accuracy [%]” value [3] was 89.6%. For the same molecule, the “Short-time stability (24h, RT, without daylight) Accuracy [%]” value [3] was 91.7%, the “Long-term stability, 1 month, -20°C Accuracy [%]” value ([4]; both) was 96.0% and the “Long-term stability, 1 month, -80°C Accuracy [%]” value ([4]; both) was 92.6%. The “Long-term stability, 2 month, -20°C Accuracy [%]” value ([4]; both) was 87.7%, the “Long-term stability, 2 month, -80°C Accuracy [%]” value ([4]; both) was 99.1% and the “Long-term stability, 3 month, -20°C Accuracy [%]” value ([4]; both) was 91.3%. The “Long-term stability, 3 month, -80°C Accuracy [%]” value ([4]; both) was 96.8% and the “Long-term stability, 6 weeks, 4°C, without daylight Accuracy [%]” value [4] was 83.5%.

For O=c1[nH]c(=O)n([C@H]2C[C@H](O)[C@@H](CO)O2)cc1C(F)(F)F [Trifluridine], the “cmin” value [2] was 1135 ng/mL.
